Experimental data reported in paper PMC6151395, “COX Inhibition Profile and Molecular Docking Studies of Some 2-(Trimethoxyphenyl)-Thiazoles” (Molecules : A Journal of Synthetic Chemistry and Natural …, 2017).
Where “and” joins values, the source holds several entries; their conditions need not be identical. Equal values may be shown once.

Columns and labels:
[1] = target: T1, ovine COX-1 (Ovis aries, UniProt P05979); test: biochemical; format: biochemical; conditions: EIA, sigmoidal concentration-inhibition curves, concentrations 0.03 μM to 300 µM
T1 construct: purchased Cayman Chemical 560131
T1 sequence (P05979 25-600): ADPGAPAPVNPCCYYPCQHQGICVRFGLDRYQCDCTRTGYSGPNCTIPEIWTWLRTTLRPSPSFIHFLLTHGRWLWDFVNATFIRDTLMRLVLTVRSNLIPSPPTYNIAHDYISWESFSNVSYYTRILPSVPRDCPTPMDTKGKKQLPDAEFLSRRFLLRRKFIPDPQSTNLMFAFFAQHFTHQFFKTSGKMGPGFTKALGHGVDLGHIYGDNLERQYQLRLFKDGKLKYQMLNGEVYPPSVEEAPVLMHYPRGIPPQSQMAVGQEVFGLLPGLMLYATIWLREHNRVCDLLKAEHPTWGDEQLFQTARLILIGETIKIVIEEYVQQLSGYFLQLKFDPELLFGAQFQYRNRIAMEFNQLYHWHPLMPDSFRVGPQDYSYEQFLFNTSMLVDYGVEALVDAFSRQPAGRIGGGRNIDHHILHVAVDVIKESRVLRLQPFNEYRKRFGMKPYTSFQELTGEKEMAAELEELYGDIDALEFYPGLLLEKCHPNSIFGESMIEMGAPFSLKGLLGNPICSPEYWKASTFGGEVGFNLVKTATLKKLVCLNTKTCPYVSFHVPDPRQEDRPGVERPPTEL
Description: (§1) The COX-1/2 inhibitory activities of the tested compounds were evaluated using the enzyme immunoassay (EIA) method against ovine COX-1 and human recombinant COX-2. The selectivity index was calculated as the ratio IC50 COX-1/IC50 COX-2.
(§2) The kit utilizes an enzyme immunoassay (EIA) in order to quantify the prostanoid product resulted from COX catalyzed reaction. The inhibitory potential of our molecules was tested against the ovine COX-1 and human recombinant COX-2 enzymes. The COX inhibition reaction was performed by a 10 min incubation at 37 °C in the presence of reaction buffer, heme, COX-1 or COX-2 enzymes, and the tested inhibitor. The reaction was initiated by adding arachidonic acid and incubating at 37 °C for 2 min. Enzymatic catalysis was stopped by adding HCl. Stannous chloride was subsequently added to perform the reduction of COX-derived prostaglandin H2 (PGH2) produced in the reaction of COX leading to prostaglandin F2α (PGF2α). PGF2α was then quantified using the EIA kit. Prostanoid containing solutions obtained from the COX reaction were then diluted and transferred to plates that were pre-coated with monoclonal anti-rabbit IgG antibodies produced in mouse. They were incubated overnight in the presence of PG-acetylcholinesterase (AchE) conjugate and specific PG antiserum. The reaction mixture was then removed from the wells, the plates were washed to remove all unbound reagents and Ellman’s reagent (which contains the AchE substrate) was then added for plate development. […] The intensity of the color is inversely proportional to the amount of PG found in the sample. The PG quantity was determined using a PG standard curve generated on the same plate. All determinations were performed according to the manufacturer’s instructions and similar with other literature reports. The IC50 values were calculated using a sigmoidal concentration-inhibition response curve (duplicate determinations). Every compound was assayed in the COX reaction on a range of concentrations from 0.03 μM to 300 µM in two distinct determinations. Each COX reaction sample was then EIA assayed at two dilutions and each dilution was tested in duplicate. […] Using IC50 values, the selectivity index (SI) was calculated as the ratio IC50COX-1/IC50COX-2.

[2] = target: T2, human recombinant COX-2 (Homo sapiens, UniProt P35354); test: biochemical; format: biochemical; conditions: for Selectivity index SI = IC50 COX-1/IC50 COX-2: ratio of ovine COX-1 to human recombinant COX-2 IC50
T2 construct: purchased Cayman Chemical 560131
T2 sequence (P35354 18-604): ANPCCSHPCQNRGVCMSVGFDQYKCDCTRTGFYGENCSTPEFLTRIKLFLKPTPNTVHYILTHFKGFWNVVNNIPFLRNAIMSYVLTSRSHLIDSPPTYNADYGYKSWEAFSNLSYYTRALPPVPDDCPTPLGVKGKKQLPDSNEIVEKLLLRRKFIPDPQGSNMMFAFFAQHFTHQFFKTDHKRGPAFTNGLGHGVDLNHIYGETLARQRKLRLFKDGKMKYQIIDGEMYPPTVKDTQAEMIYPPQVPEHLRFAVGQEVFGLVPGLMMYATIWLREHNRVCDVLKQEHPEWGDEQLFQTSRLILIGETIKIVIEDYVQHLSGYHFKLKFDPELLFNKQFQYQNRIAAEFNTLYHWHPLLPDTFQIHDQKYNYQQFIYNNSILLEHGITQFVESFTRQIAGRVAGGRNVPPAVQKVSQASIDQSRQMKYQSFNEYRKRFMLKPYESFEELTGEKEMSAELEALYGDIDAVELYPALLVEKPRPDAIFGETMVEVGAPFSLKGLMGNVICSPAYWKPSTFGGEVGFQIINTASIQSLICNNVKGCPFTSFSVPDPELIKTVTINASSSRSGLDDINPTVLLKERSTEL
Description: as §1, §2

[3] = design: method as in earlier work; conditions: induced acute inflammation experimental model; cited from earlier work
[4] = human recombinant COX-2, EIA, sigmoidal concentration-inhibition curves, concentrations 0.03 μM to 300 µM

Row | SMILES | IC50 [1] [µM] | IC50 [2, 4] [µM] | Selectivity index SI = IC50 COX-1/IC50 COX-2 [2] | in vivo anti-inflammatory effect [3] | IC50 COX-1 [1] | IC50 COX-2 [2, 4]
1 | COc1cc(-c2nc(-c3ccc(C#N)cc3)cs2)cc(OC)c1OC [A5] | 73.3 | 148 | 0.49 | – | – | –
2 | COc1cc(-c2nc(-c3ccc([N+](=O)[O-])cc3)cs2)cc(OC)c1OC [A3] | 236 | 25.5 | 9.242 and 9.24 | efficient | – | –
3 | COc1cc(-c2nc(-c3ccc(Cl)cc3)cs2)cc(OC)c1OC [A8] | 31.5 | 25.6 | 1.22 | efficient | potent | –
4 | COc1cc(-c2nc(-c3sc(-c4ccccc4)nc3C)cs2)cc(OC)c1OC [A9] | 83.2 | 70.9 | 1.17 | – | – | –
5 | COc1cc(-c2nc(-c3cccc4ccccc34)cs2)cc(OC)c1OC [A6] | 26.9 | 28.9 | 0.93 | – | – | –
6 | COc1cc(-c2nc(CCl)cs2)cc(OC)c1OC [A10] | – | 107 | 5.69 | – | – | –
7 | COc1ccc(-c2csc(-c3cc(OC)c(OC)c(OC)c3)n2)cc1 [A4] | 50.4 | 75 | 0.67 | – | potent | –
8 | CCOC(=O)Cc1csc(-c2cc(OC)c(OC)c(OC)c2)n1 [A13] | 109 | 229 | 0.47 | – | – | –
9 | COc1cc(-c2nc(-c3ccccc3)c(C)s2)cc(OC)c1OC [A1] | 140 | > 300 | – | – | – | practically inactive
10 | COc1cc(-c2nc(-c3ccccc3)cs2)cc(OC)c1OC [A2] | 34.5 | 23.3 | 1.48 | lacked the in vivo effect | potent | –
11 | COc1cc(-c2nc(-c3ccc(C(N)=O)c(O)c3)cs2)cc(OC)c1OC [A7] | 54.7 | 106 | 0.51 | – | potent | –
12 | COc1cc(-c2nc(C)c(C(C)=O)s2)cc(OC)c1OC [A11] | 76 | 216 | 0.35 | – | – | –
13 | CCOC(=O)c1sc(-c2cc(OC)c(OC)c(OC)c2)nc1C [A12] | – | 273 | 1.5 | – | – | –
